The numbers were not newly measured in EP1677774B1, “CITICOLINE-BASED COMPOSITION IN COMBINATION WITH VITAMINS FOR THE PREVENTION AND TREATMENT OF EYE PATHOLOGIES” (Bausch & Lomb IOM S.p.A., priority 2003, dated 2005), which cites them from elsewhere.

The test system of one data set is glaucomatous patients. As to conditions: intramuscular administration.

On to `C[N+](C)(C)CCOP(=O)(O)OP(=O)([O-])OC[C@H]1O[C@@H](n2ccc(N)nc2=O)[C@H](O)[C@@H]1O` [CDP-choline, cytidine-5'-diphosphocholine], for which the “effect on the optic nerve (perimetric measures)” value in the data set on glaucomatous patients (long-term clinical studies) is recorded as “positive effect on the damaged optic nerve”. Besides, the “retinal and supraretinal signal conduction” value in the data set with glaucomatous patients (short-term clinical study) is on record as “functional improvement”. Besides, the “metabolic fate after administration” value (intravenous or oral administration) is “immediately hydrolysed and converted into the two circulating metabolites cytidine and choline”. Moreover, the “calculated bioavailability for oral administration” value (oral compared with intravenous administration) is “virtually the same as the one calculated for intravenous administration”.
